{"source": "patent US6518300B2", "about": "“Treatment of lipid metabolic disorders using 5-(1,2-dithiolan-3-yl) valeric acid (α-lipoic acid) or its physiologically compatible salts” (BiRD Berolina innovative Research and Development GmbH, priority 1998, dated 2003)", "key": {"[1]": {"test": "open observational study of blood lipid values under α-lipoic acid therapy; total population and individual-parameter analysis", "format": "in vivo, patients", "procedure": "A somewhat smaller group was treated with α-lipoic acid, but not with captopril (n=280). The treatment time extended over approximately 3 months. α-Lipoic acid was predominantly administered orally or parenterally in a dose of 600 mg per day. Captopril was ingested orally in daily doses of 12.5 to 50 mg. At the beginning of therapy and at the end of observation after three months, the blood lipid values were optionally recorded. […] Because of the different basic treatment, the patients with combined therapy of α-lipoic acid and captopril and those with a single therapy with α-lipoic acid were placed in subgroups for this purpose: the 160 remaining patients (those with single therapy with captopril, n=154; those without treatment data n=6) were not included in the further analysis, since in this remaining group, only a small, incomparable number of patients had initial values corresponding to the range named under point 2 (triglycerides n=0, total cholesterol n=63, HDL cholesterol n=0, LDL cholesterol n=32). In a first analysis, the parameters were represented independently of one another, i.e., all patients, who had the initial values given below for the parameter, were included for each parameter: triglycerides >6 mmoles/l; total cholesterol >6 mmoles/l HDL cholesterol 0.7-0.8 mmole/l; LDL cholesterol >2.5 mmoles/l. The limits of the range were selected based on the studies reported in the literature (H. Thuro, Effective decrease in cholesterol and triglycerides with atorvastatin, Supplement in Der Internist 1996; 37 (8), 1-8)."}, "[2]": {"test": "same observational study; patients assigned to three groups by disease pattern (DGFF guidelines)", "format": "in vivo", "procedure": "A somewhat smaller group was treated with α-lipoic acid, but not with captopril (n=280). The treatment time extended over approximately 3 months. α-Lipoic acid was predominantly administered orally or parenterally in a dose of 600 mg per day. Captopril was ingested orally in daily doses of 12.5 to 50 mg.\nIn another consideration, the patients were assigned to three groups on the basis of their disease pattern, independent of the form of therapy, according to the “Guidelines of the German Association for Combatting Disorders of Lipid Metabolism and Their Sequelae DGFF (Lipid-Liga) e.V.” (Supplement to the German Ärzteblatte 1996; 4, 1-8):\n1) isolated LDL-hypercholesterolemia (LDL>4.14, triglycerides≦2.2 mmoles/l);\n2) combined LDL-hypercholesterolemia (LDL>4.14, triglycerides>2.2 mmoles/l);\n3) isolated hypertriglyceridemia (LDL≦4.14, triglycerides>2.2 mmoles/l).\nStandard values from the literature were set as limiting values (Wilson et al., Harrison's Principles of Internal Medicine, 12Edition, McGraw-Hill, 1991).\nSixty-two patients were placed in the first group, 112 patients in the second group, and 83 patients in the third group."}, "[3]": {"conditions": "doses of approximately 600 mg/day; treatment of polyneuropathy; cited from earlier work"}, "[4]": {"conditions": "total population, start vs end of observation after three months, predominantly 600 mg per day"}, "[5]": {"conditions": "group 2 combined LDL-hypercholesterolemia"}, "[6]": {"conditions": "group 2 combined LDL-hypercholesterolemia, 91 paired values, p<0.0001"}}, "data": [{"smiles": "O=C(O)CCCCC1CCSS1", "note": "(stereo not drawn) [α-lipoic acid, 5-(1,2-dithiolan-3-yl) valeric acid]", "values": [{"measurement": "HDL cholesterol, mean end value", "setting": "[1]; patients with initial HDL 0.7-0.8 mmole/l, all patients, prior mean 0.76 (n=33), end n=13, increase not significant", "result": 0.97, "unit": "mmol/L"}, {"measurement": "percent increase of HDL cholesterol, on average", "setting": "[1]; patients with initial HDL 0.7-0.8 mmole/l, not significant", "result": "over 20%"}, {"measurement": "LDL cholesterol, mean end value", "setting": "[1]; patients with initial LDL >2.5 mmoles/l, all patients, prior mean 4.41 (n=336), end n=208, p<0.001", "result": 4.03, "unit": "mmol/L"}, {"measurement": "percent decrease of LDL cholesterol, on average", "setting": "[1]; patients with initial LDL >2.5 mmoles/l, in all groups", "result": "approximately 10%"}, {"measurement": "mean percent decrease of total cholesterol", "setting": "[1]; patients with initial total cholesterol >6 mmoles/l, in all groups", "result": "approximately 10%"}, {"measurement": "total cholesterol, mean end value", "setting": "[1]; patients with initial total cholesterol >6 mmoles/l, prior mean 7.32 (n=853), 570 paired values, p<0.0001", "result": 6.57, "unit": "mmol/L"}, {"measurement": "triglycerides, mean end value", "setting": "[1]; patients with initial triglycerides >6 mmoles/l, all patients, prior mean 8.96 (n=33), end n=26, p<0.05, approx. 3 months", "result": 7.16, "unit": "mmol/L"}, {"measurement": "mean percentual decrease of triglycerides", "setting": "[1]; patients with initial triglycerides >6 mmoles/l, in all groups (total, combined with captopril, single therapy)", "result": "greater than 20%"}, {"measurement": "observed changes of all lipid parameters, single therapy compared with combined therapy with captopril", "setting": "[1]; single therapy of α-lipoic acid vs combined therapy with captopril", "result": "more strongly pronounced"}, {"measurement": "change of HDL cholesterol", "setting": "[1]; [4]", "result": "slight increase"}, {"measurement": "change of LDL cholesterol", "setting": "[1]; [4]", "result": "statistically striking decrease"}, {"measurement": "change of total cholesterol", "setting": "[1]; [4]", "result": "statistically striking decrease"}, {"measurement": "change of triglycerides", "setting": "[1]; total population, start vs end of observation after three months, predominantly 600 mg per day oral or parenteral", "result": "statistically striking decrease"}, {"measurement": "HDL cholesterol, percent increase", "setting": "[2]; group 1, 34 paired values, not significant", "result": "approximately 10%"}, {"measurement": "total cholesterol, percent decrease", "setting": "[2]; group 1 isolated LDL-hypercholesterolemia", "result": 8, "unit": "%"}, {"measurement": "total cholesterol, end value", "setting": "[2]; group 1 isolated LDL-hypercholesterolemia, initial 7.01 (n=62), end n=40", "result": 6.49, "unit": "mmol/L"}, {"measurement": "LDL cholesterol, mean percent decrease", "setting": "[2]; group 1 isolated LDL-hypercholesterolemia, p<0.0001", "result": 16, "unit": "%"}, {"measurement": "HDL cholesterol, end value", "setting": "[2]; group 1 isolated LDL-hypercholesterolemia, prior 1.29 (n=61), end n=34", "result": 1.34, "unit": "mmol/L"}, {"measurement": "triglycerides, average end value", "setting": "[2]; group 1 isolated LDL-hypercholesterolemia, prior 1.69, n=38, increase not significant", "result": 1.70, "unit": "mmol/L"}, {"measurement": "LDL cholesterol, end value", "setting": "[2]; group 1 isolated LDL-hypercholesterolemia, prior 5.02, n=33", "result": 4.33, "unit": "mmol/L"}, {"measurement": "HDL cholesterol, percent increase", "setting": "[2]; [5]", "result": 4.5, "unit": "%"}, {"measurement": "total cholesterol, percent decrease", "setting": "[2]; [5]", "result": "~10", "unit": "%"}, {"measurement": "triglycerides, absolute difference (decrease)", "setting": "[2]; [6]", "result": 0.83, "unit": "mmol/L"}, {"measurement": "triglycerides, percent decrease", "setting": "[2]; [6]", "result": 20, "unit": "%"}, {"measurement": "LDL cholesterol, mean percent decrease", "setting": "[2]; group 2 combined LDL-hypercholesterolemia, p<0.0001", "result": 14, "unit": "%"}, {"measurement": "HDL cholesterol, end value", "setting": "[2]; group 2 combined LDL-hypercholesterolemia, prior 1.15 (n=108), end n=77", "result": 1.15, "unit": "mmol/L"}, {"measurement": "LDL cholesterol, end value", "setting": "[2]; group 2 combined LDL-hypercholesterolemia, prior 5.42, n=74", "result": 4.75, "unit": "mmol/L"}, {"measurement": "total cholesterol, end value", "setting": "[2]; group 2 combined LDL-hypercholesterolemia, prior 7.71 (n=112), end n=94", "result": 6.86, "unit": "mmol/L"}, {"measurement": "triglycerides, end value", "setting": "[2]; group 2 combined LDL-hypercholesterolemia, prior value 3.75, 91 paired values", "result": 2.74, "unit": "mmol/L"}, {"measurement": "HDL cholesterol, percent increase", "setting": "[2]; group 3, 59 paired values, p<0.01", "result": "approximately 15%"}, {"measurement": "total cholesterol, percent decrease", "setting": "[2]; group 3 isolated hypertriglyceridemia", "result": "about 5%"}, {"measurement": "LDL cholesterol, end value", "setting": "[2]; group 3 isolated hypertriglyceridemia, initial 3.29, n=59, change not significant", "result": 3.23, "unit": "mmol/L"}, {"measurement": "total cholesterol, end value", "setting": "[2]; group 3 isolated hypertriglyceridemia, initial 6.31 (n=83), end n=67", "result": 5.88, "unit": "mmol/L"}, {"measurement": "triglycerides, percent reduction", "setting": "[2]; group 3 isolated hypertriglyceridemia, n=67, p<0.0001", "result": "about 16%"}, {"measurement": "HDL cholesterol, end value", "setting": "[2]; group 3 isolated hypertriglyceridemia, prior 1.19 (n=83), end n=59", "result": 1.31, "unit": "mmol/L"}, {"measurement": "triglycerides, end value", "setting": "[2]; group 3 isolated hypertriglyceridemia, prior 3.33 (n=83), n=67, p<0.0001", "result": 2.69, "unit": "mmol/L"}, {"measurement": "decrease in ratio of LDL to HDL cholesterol", "setting": "[2]; isolated LDL hypercholesterolemia (group 1)", "result": 16.97, "unit": "%"}, {"measurement": "ratio of LDL to HDL cholesterol, end value", "setting": "[2]; isolated LDL hypercholesterolemia (group 1), prior value 3.89", "result": 3.23}, {"measurement": "decrease in ratio of LDL to HDL cholesterol", "setting": "[2]; mixed hyperlipidemia (group 2)", "result": 12.31, "unit": "%"}, {"measurement": "ratio of LDL to HDL cholesterol, end value", "setting": "[2]; mixed hyperlipidemia (group 2), prior value 4.71", "result": 4.13}, {"measurement": "improvement in ratio of LDL to HDL cholesterol", "setting": "[2]; patients without LDL cholesterinolemia (group 3), initial value in normal range", "result": 10.51, "unit": "%"}, {"measurement": "compatibility of oral and parenteral therapy", "setting": "[3]", "result": "very good"}]}]}
